PubChem BioAssay AID248 (DTP/NCI, 2004)
Values joined by “and” are separate entries in the source; they are usually repeats but may differ in a detail not shown here. Equal entries are not always repeated. Inconclusive results and toxic doses are left out. Rule as the data show it: active = T/C of 150% or more; inactive = T/C below 125%.

Test system: L1210 leukemia ip in BDF1 mice, survival T/C
Assay: NCI In Vivo Anticancer Drug Screen. Data for tumor model L1210 Leukemia (intraperitoneal) in B6D2F1 (BDF1) mice
Settings: endpoint: mean survival time, higher = longer survival
Method in brief: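 Value reflects the ratio of survival in compound-treated mice to survival in vehicle-treated controls, with both groups carrying the same transplanted tumor.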

Measured: T/C

O=c1[nH]c(=O)n(C2CC(O)C(CO)O2)cc1I (stereo not drawn)
inactive: dose: 62.5 mg/kg/injection, schedule: Q#A X Z (ip), vehicle: other 119 % of control | dose: 125.0 mg/kg/injection, schedule: Q01DX009 (ip), vehicle: saline 103 % of control and 113 % of control | dose: 125.0 mg/kg/injection, schedule: Q01DX010 (ip), vehicle: saline 114 % of control and 117 % of control | dose: 125.0 mg/kg/injection, schedule: Q03DX Z (ip), vehicle: other 119 % of control | dose: 150.0 mg/kg/injection, schedule: Q01DX009 (ip), vehicle: saline 114 % of control | dose: 178.0 mg/kg/injection, schedule: Q01DX Z (ip), vehicle: other 124 % of control | dose: 178.0 mg/kg/injection, schedule: Q01DX Z (ip), vehicle: saline 112 % of control | dose: 250.0 mg/kg/injection, schedule: Q01DX001 (ip), vehicle: other 105 % of control and 108 % of control | dose: 250.0 mg/kg/injection, schedule: Q01DX009 (ip), vehicle: saline 111 % of control and 118 % of control | dose: 250.0 mg/kg/injection, schedule: Q01DX010 (ip), vehicle: saline 114 % of control | dose: 250.0 mg/kg/injection, schedule: Q03DX Z (ip), vehicle: other 104 % of control | dose: 250.0 mg/kg/injection, schedule: Q07DX Z (ip), vehicle: other 110 % of control | dose: 267.0 mg/kg/injection, schedule: Q01DX Z (ip), vehicle: other 116 % of control | dose: 267.0 mg/kg/injection, schedule: Q01DX Z (ip), vehicle: saline 122 % of control | dose: 300.0 mg/kg/injection, schedule: Q01DX009 (ip), vehicle: saline 121 % of control | dose: 400.0 mg/kg/injection, schedule: Q01DX Z (ip), vehicle: other 113 % of control | dose: 500.0 mg/kg/injection, schedule: Q01DX001 (ip), vehicle: other 110 % of control and 113 % of control | dose: 500.0 mg/kg/injection, schedule: Q01DX009 (ip), vehicle: saline 116 % of control and 120 % of control | dose: 500.0 mg/kg/injection, schedule: Q01DX010 (ip), vehicle: saline 111 % of control and 122 % of control | dose: 500.0 mg/kg/injection, schedule: Q03DX Z (ip), vehicle: other 116 % of control | dose: 500.0 mg/kg/injection, schedule: Q07DX Z (ip), vehicle: other 113 % of control | dose: 600.0 mg/kg/injection, schedule: Q01DX005 (ip), vehicle: carboxymethylcellulose (CMC) 107 % of control | dose: 600.0 mg/kg/injection, schedule: Q01DX009 (ip), vehicle: carboxymethylcellulose (CMC) 92 % of control | dose: 1000.0 mg/kg/injection, schedule: Q01DX001 (ip), vehicle: other 110 % of control and 116 % of control | dose: 1000.0 mg/kg/injection, schedule: Q01DX009 (ip), vehicle: saline 111 % of control and 117 % of control | dose: 1000.0 mg/kg/injection, schedule: Q01DX010 (ip), vehicle: saline 111 % of control and 124 % of control | dose: 1000.0 mg/kg/injection, schedule: Q03DX Z (ip), vehicle: other 117 % of control | dose: 1000.0 mg/kg/injection, schedule: Q07DX Z (ip), vehicle: other 105 % of control | dose: 2000.0 mg/kg/injection, schedule: Q01DX010 (ip), vehicle: saline 119 % of control | dose: 2400.0 mg/kg/injection, schedule: Q## X003 (ip), vehicle: carboxymethylcellulose (CMC) 101 % of control
active: dose: 150.0 mg/kg/injection, schedule: Q01DX009 (ip), vehicle: carboxymethylcellulose (CMC) 167 % of control | dose: 300.0 mg/kg/injection, schedule: Q01DX005 (ip), vehicle: carboxymethylcellulose (CMC) 151 % of control | dose: 304.0 mg/kg/injection, schedule: Q## X024 (ip), vehicle: carboxymethylcellulose (CMC) 150 % of control | dose: 500.0 mg/kg/injection, schedule: Q#A X Z (ip), vehicle: other 152 % of control | dose: 600.0 mg/kg/injection, schedule: Q## X002 (ip), vehicle: carboxymethylcellulose (CMC) 158 % of control | dose: 600.0 mg/kg/injection, schedule: Q## X003 (ip), vehicle: carboxymethylcellulose (CMC) 170 % of control | dose: 600.0 mg/kg/injection, schedule: Q## X016 (ip), vehicle: carboxymethylcellulose (CMC) 158 % of control | dose: 600.0 mg/kg/injection, schedule: Q## X024 (ip), vehicle: carboxymethylcellulose (CMC) 182 % of control | dose: 900.0 mg/kg/injection, schedule: Q01DX Z (ip), vehicle: saline 164 % of control | dose: 1200.0 mg/kg/injection, schedule: Q01DX001 (ip), vehicle: carboxymethylcellulose (CMC) 161 % of control | dose: 1200.0 mg/kg/injection, schedule: Q## X002 (ip), vehicle: carboxymethylcellulose (CMC) 187 % of control | dose: 1200.0 mg/kg/injection, schedule: Q## X003 (ip), vehicle: carboxymethylcellulose (CMC) 211 % of control | dose: 1200.0 mg/kg/injection, schedule: Q## X008 (ip), vehicle: carboxymethylcellulose (CMC) 157 % of control | dose: 1200.0 mg/kg/injection, schedule: Q## X016 (ip), vehicle: carboxymethylcellulose (CMC) 167 % of control | dose: 1200.0 mg/kg/injection, schedule: Q## X024 (ip), vehicle: carboxymethylcellulose (CMC) 160 % of control | dose: 2400.0 mg/kg/injection, schedule: Q01DX001 (ip), vehicle: carboxymethylcellulose (CMC) 175 % of control | dose: 2400.0 mg/kg/injection, schedule: Q## X002 (ip), vehicle: carboxymethylcellulose (CMC) 161 % of control | dose: 2400.0 mg/kg/injection, schedule: Q## X008 (ip), vehicle: carboxymethylcellulose (CMC) 188 % of control | dose: 2400.0 mg/kg/injection, schedule: Q## X016 (ip), vehicle: carboxymethylcellulose (CMC) 232 % of control

COC(=O)c1ccccc1N=NNc1ccccc1-c1nc(N)nc(N)n1
inactive: dose: 100.0 mg/kg/injection, schedule: Q01DX009 (ip), vehicle: Klucel (hydroxypropylcellulose) (HPC) 95 % of control | dose: 100.0 mg/kg/injection, schedule: Q04DX003 (ip), vehicle: Klucel (hydroxypropylcellulose) (HPC) 103 % of control | dose: 200.0 mg/kg/injection, schedule: Q01DX009 (ip), vehicle: Klucel (hydroxypropylcellulose) (HPC) 104 % of control | dose: 200.0 mg/kg/injection, schedule: Q04DX003 (ip), vehicle: Klucel (hydroxypropylcellulose) (HPC) 106 % of control | dose: 400.0 mg/kg/injection, schedule: Q01DX009 (ip), vehicle: Klucel (hydroxypropylcellulose) (HPC) 98 % of control | dose: 400.0 mg/kg/injection, schedule: Q04DX003 (ip), vehicle: Klucel (hydroxypropylcellulose) (HPC) 95 % of control

CC1CCC(C(C)C)/C(=N\O)C1 (stereo not drawn)
inactive: dose: 100.0 mg/kg/injection, schedule: Q01DX001 (ip), vehicle: saline with Tween-80 93 % of control | dose: 200.0 mg/kg/injection, schedule: Q01DX001 (ip), vehicle: saline with Tween-80 97 % of control | dose: 400.0 mg/kg/injection, schedule: Q01DX001 (ip), vehicle: saline with Tween-80 93 % of control
